26 compounds from patent US6593362B2, “Non-peptidic cyclophilin binding compounds and their use” (Guilford Pharmaceuticals Inc., priority 2001, dated 2003) can be followed below.

The target of data set [1] is CyP A (Homo sapiens, UniProt P62937). Kind of data set: biochemical. The conditions noted are these: for inhibition at 10 µM: read-out: % Inhibition at 10 μM. The procedure:
A number of substrates for rotamase are known in the art or can be derived from those known. Typically, the substrate contacts a sample containing a protein with rotamase activity and the conversion of the substrate is detected after a period of time. The method for detecting conversion of the substrate will vary with the particular substrate chosen.
The following were added to a plastic cuvette: […] of ice cold assay buffer (25 mM HEPES, pH 7.8, 100 mM NaCl), 10 μL of CyP A (2.5 μM in 10 mM Tris-Cl pH 7.5, 100 mM NaCl, 1 mM dithiothreitol), 25 μL of chymotrypsin (50 mg/ml in 1 mM HCl), and 10 μL of test compound, at various concentrations, in dimethyl sulfoxide. The reaction was initiated by the addition of 5 μL of substrate (succinyl-Ala-Phe-Pro-Phe-para-nitroanilide, 5 mg/mL in 470 mM LiCl in trifluoroethanol). The absorbance at 390 nm versus time was monitored for 90 seconds using a spectrophotometer.
While CyP A is used in these examples, other CyP proteins can be substituted.

Data set [2] concerns ventral horn motoneurons. Kind of data set: Neuroprotection assay, THA-treated organotypic spinal cord slice cultures. Format: cell-based. The note with it: THA 200 μM + compound 10 μM, rat spinal cord slice cultures, FIGS. 1-6. The procedure: For each of FIGS. 1-6, the bar graphs represent the number of viable neurons after a specified treatment regimen employed in a neuroprotective activity assay. The cells of the experiments were treated with a control solution, a neurotoxic solution, and neurotoxic+experimental compound solution. The statistical significance, p, is calculated using the standard 2 tailed Student's t test.
Protection of cells from calcium-related physiological stress can be assessed in a neuroprotection assay. Organotypic slice cultures of rat spinal cord tissue display a protracted loss of ventral horn motoneurons when exposed to the glutamate uptake inhibitor THA. […] Each experiment consisted of two 6-well plates with 5 slices from 4 different animals per well. Media changes were performed every 3 to 4 days. […] The control was an untreated sample with 0.1% DMSO as vehicle. The THA control was a THA treated sample with 0. 1% DSMO as vehicle. Two wells were used per condition. One media change with new THA and compounds was performed. The experiment was stopped 6 to 8 days following drug treatment (13-15 total days in vitro, DIV) as dictated by visual assessment of lesion, by fixation with 4% paraformaldehyde/0.1 M phosphate buffer for 30 minutes. Slices were permeabilized with 100% cold methanol for 10 minutes. Slices were transferred to staining wells. The slices were blocked with 10% horse serum/TBS. Primary antibody incubation was overnight at 4° C. with SMI-32 antibody 1:5000 in 2% horse serum/TBS. SMI-32 is specific towards the unphosphorylated H neurofilament subunit, and was here utilized as a marker for ventral horn motoneurons. A Vectastain ABC Elite Kit with rat absorbed anti-mouse secondary antibody was used with DAB to stain the slices. The slices were mounted under DPX mounting solution for microscopy.
Quantification of surviving neurons was performed on a Zeiss Axiovert microscope. Neuronal survival was determined by observing an intact neuronal cell body with processes located ventrally of the central canal in each hemisphere. This correlated to laminae VII, VIII and IX. Each hemisphere was counted individually. The statistics were performed with StatView software on a minimum of three different experiments per condition and significance was determined as compared to THA control. The percent of protection was determined from the average number of living neurons by the following equation: (drug treatment condition —THA control)/(Untreated control-THA control).

Data set [3] concerns neuronal cells. Kind of data set: Neurotrophic or neuroprotectant activity (assay not specified). Format: cell-based. The source says: In general, activity in the nervous system for a particular compound can be identified by assaying for the ability to promote neurite outgrowth, protect neurons from damage by chemical treatments, promote the growth of neurons or neuronal cells, recover lost or damaged motor, functional or cognitive ability associated with nervous tissue or organs of the nervous system, or regenerate neurons. These activities can be useful in treating, diagnosing, or prognosing a number of human disease conditions, including, but not limited to, Parkinson's disease, Alzheimer's disease, amyotrophic lateral sclerosis (ALS), traumatic injury, spinal cord injury, multiple sclerosis, diabetic neuropathy, neuropathy associated with medical treatments such as chemotherapy, ischemia or ischemia-induced injury, stroke, oxygen deprivation, retinopathies, peripheral neuropathies, and neuropathies associated with viral infection.
Preferred methods for detecting neuronal activity include a neuroprotective assay, in which a compound is tested for the ability to protect against treatment causing glutamate neurotoxicity. Sensory neuronal cultures (DRG) can also be assayed for neurite outgrowth, an assay for neurotrophic activity. […] Immunohistochemistry can aid in the visualization and quantitation of neurites as compared to control.

Chain of CyP A (P62937 whole entry): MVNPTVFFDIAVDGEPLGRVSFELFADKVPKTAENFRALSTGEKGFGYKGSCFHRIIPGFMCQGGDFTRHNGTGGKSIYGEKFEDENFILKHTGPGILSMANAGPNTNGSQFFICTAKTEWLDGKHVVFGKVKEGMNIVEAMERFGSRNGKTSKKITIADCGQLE

For `NC(=O)c1ccccc1NC(=O)Nc1cc(NC(=O)Nc2ccccc2C(N)=O)c(Br)cc1Br` [Compound 1], in data set [1], the inhibition at 10 µM was 100%.
In data set [1], `O=C(Nc1ccc(I)cc1)Nc1cc(NC(=O)Nc2ccc(I)cc2)c(Br)cc1Br` [Compound 3] gave an IC50 of 600 nM. The “neuroprotective activity (number of viable neurons)” value (“neuroprotective activity” below) in data set [2] is “displays neuroprotective activity”.
As to `Cc1ccc(NC(=O)N(Cc2ccccc2)Cc2ccccc2)cc1NC(=O)N(Cc1ccccc1)Cc1ccccc1` [Compound 4], in data set [1], half-maximal inhibition (IC50) required 800 nM and the inhibition at 10 µM was found to be 100%. In data set [2], the “neuroprotective activity” value is recorded as “displays neuroprotective activity”.
`CSc1ccc(Cl)cc1C(=O)Nc1cccc(NC(=O)c2cc(Cl)ccc2SC)c1` [Compound 6]: the inhibition at 10 µM in data set [1] is 100%. Further, in data set [3], the “neurotrophic or neuroprotectant activity” value is listed as “possess neurotrophic or neuroprotectant activity”.
On the same counts, the results for `O=C(Nc1ccccc1)Nc1cc(NC(=O)Nc2ccccc2)cc(C(F)(F)F)c1` [Compound 7] are 100% and “possess neurotrophic or neuroprotectant activity”.
Take `O=C(Nc1cccc2ccccc12)NC1CCCC(NC(=O)Nc2cccc3ccccc23)C1` (centres unmarked) [Compound 10]: 4500 nM corresponded to half-maximal inhibition in data set [1] (IC50).
With `O=C(Nc1cccc(NC(=O)Nc2ccon2)c1)Nc1ccon1` [Compound 11], in data set [1], half-maximal inhibition (IC50) required 4000 nM and the inhibition at 10 µM came out at 93%. Also, in data set [2], the “neuroprotective activity” value is on record as “displays neuroprotective activity”.
In the case of `COc1cccc(NC(=O)NC2CCCC(NC(=O)Nc3cccc(OC)c3)C2)c1` (centres unmarked) [Compound 12], in data set [1], half-maximal inhibition (IC50) was put at 9500 nM and the inhibition at 10 µM amounted to 47.7%. In data set [2], the “neuroprotective activity” value is given as “displays neuroprotective activity”.
Regarding `O=S(=O)(Nc1cccc(OCCc2cccc3ccccc23)c1)c1cccc2ccccc12` [Compound 13], the melting point was 165 to 167 °C. For the same compound, in data set [1], 830 nM corresponded to half-maximal inhibition (IC50) and the inhibition at 10 µM was found to be 100%.
Regarding `O=C(Nc1cc(Cl)cc(Cl)c1)c1cccc(C(=O)Nc2cc(Cl)cc(Cl)c2)c1` [Compound 14], the inhibition at 10 µM in data set [1] is 100%.
Turning to `O=C(NCc1cccc2ccccc12)c1cccc(NC(=O)c2cc(Cl)cc(Cl)c2)c1` [Compound 16, {3-[(3,5-dichlorophenyl)carbonylamino]phenyl}-N-(naphthylmethyl) formamide], the melting point is 205 to 208 °C. In addition, the inhibition at 10 µM in data set [1] came to 100%.
For `O=C(Nc1cccc(S(=O)(=O)NC(c2ccccc2)c2ccccc2)c1)C(c1ccccc1)c1ccccc1` [Compound 17], in data set [1], 650 nM corresponded to half-maximal inhibition (IC50) and the inhibition at 10 µM amounted to 99%.
Take `O=C(Nc1cccc(S(=O)(=O)NC(c2ccccc2)c2ccccc2)c1)c1cc(Cl)cc(Cl)c1` [Compound 18]: in data set [1], the IC50 is 520 nM and the inhibition at 10 µM was determined as 100%.
On the same counts, the results for `CN(C)c1ccc(NC(=O)Nc2cc(NC(=O)Nc3ccc(N(C)C)cc3)c(Br)cc2Br)cc1` [Compound 19] are 2900 nM and 98%.
Turning to `O=C(NCc1cccc2ccccc12)Nc1cccc(NC(=O)NCc2cccc3ccccc23)c1` [Compound 21], the inhibition at 10 µM in data set [1] was found to be 100%.
Still for that read-out and setting: for `O=C(Nc1cccc(NC(=O)N(c2ccccc2)c2ccccc2)c1)N(c1ccccc1)c1ccccc1` [Compound 22] the value was 100%; for `O=C(Nc1cc(Cl)cc(Cl)c1)NC1CCCC(NC(=O)Nc2cc(Cl)cc(Cl)c2)C1` (centres unmarked) [Compound 23], 100%.
Same read-out and setting: for `O=C(Nc1ccc(Br)cc1Br)NC1CCCC(NC(=O)Nc2ccc(Br)cc2Br)C1` (centres unmarked) [Compound 24] the value was 100%; for `O=C(NCC1CCCC(CNC(=O)Nc2cc(Cl)cc(Cl)c2)C1)Nc1cc(Cl)cc(Cl)c1` (centres unmarked) [Compound 25], 100%; for `O=C(NCC1CCCC(CNC(=O)Nc2cc(Br)cc(Br)c2)C1)Nc1cc(Br)cc(Br)c1` (centres unmarked) [Compound 26], 100%.
Take `Cc1ccc(NC(=O)Nc2cccc(NC(=O)Nc3ccc(C)cc3C)c2)c(C)c1` [Compound 27]: the inhibition at 10 µM in data set [1] was 100%.
Same read-out and setting: for `O=C(Nc1cc(Cl)cc(Cl)c1)Nc1cccc(NC(=O)Nc2cc(Cl)cc(Cl)c2)c1` [Compound 28] the value was 100%.
Still for that read-out and setting: as for `O=C(Nc1cccc(NC(=O)Nc2ccc(Br)cc2Br)c1)Nc1ccc(Br)cc1Br` [Compound 29], the figure is 89%; as for `O=C(NCc1cccc(CNC(=O)Nc2cc(Cl)cc(Cl)c2)c1)Nc1cc(Cl)cc(Cl)c1` [Compound 30], 88%; as for `O=C(NCc1cccc(CNC(=O)Nc2ccc(Br)cc2Br)c1)Nc1ccc(Br)cc1Br` [Compound 31], 100%.
As for cyclosporin A [CsA, reference compound], the “neuroprotective activity” value in data set [2] is listed as “maintains neuronal viability”.

The inhibition is the percentage by which the read-out fell short of the control. What is called IC50 is the concentration needed to halve the response being measured. The melting point is the temperature of the solid-liquid transition.
